“And” between values parts separate entries of the source, which are not always exact repeats. Identical values can stand only once. Like-named read-outs stand apart in the source and are kept apart here.
Columns and labels:
A-427 (lung) = assay: Growth inhibition IC50, A-427 (lung) cell line; assay type: cell-based; conditions: value (standard deviation)
Method: (§1) When we compare the effect of changing the diamine from the non-chiral 1,2-diaminoethane (en) to the chiral ligands and 2S,3S-diaminobutane (2S,3S-bn) and 2R,3R-diaminobutane (2R,3R-bn) then the concentration inhibiting the exponential growth of cells to 50% is further reduction from 27.0 to 1.11 and 0.32 μM respectively.

KYSE 520 (esophagus) = assay: Growth inhibition IC50, KYSE 520 (esophagus) cell line; assay type: cell-based; conditions: value (standard deviation)
Method: as §1

5637 (bladder) = assay: Growth inhibition IC50, 5637 (bladder) cell line; assay type: cell-based; conditions: value (standard deviation)
Method: as §1

LCLC-103H (lung) = assay: Growth inhibition IC50, LCLC-103H (lung) cell line; assay type: cell-based; conditions: value (standard deviation)
Method: as §1

[1] = system: C13*5 cisplatin-resistant cells; assay: Sulphorhodamine B (SRB) growth inhibition assay, C13; assay type: cell-based, human; conditions: Test SRB, acquired cisplatin resistance
Text: (§2) The data presented in Table3 is the results collected from the growth inhibition studies of selected compounds with the following cell lines: L1210 (mouse leukaemia cells), 2008 (human ovarian carcinoma cells), L1210/DDP and C13*5 (acquired cisplatin resistance) and SKOV-3 (intrinsic cisplatin resistance).

[2] = system: L1210/DDP cisplatin-resistant cells; assay: CC growth inhibition assay, L1210/DDP; assay type: cell-based, mouse; conditions: Test CC, 40 μM highest dose tested
Text: as §2

[3] = system: L1210 mouse leukaemia cells; assay: CC growth inhibition assay, L1210; assay type: cell-based; conditions: Test CC, 40 μM highest dose tested
Text: as §2

[4] = system: SKOV-3 cells (intrinsically resistant to cisplatin); assay: Sulphorhodamine B (SRB) growth inhibition assay, SKOV-3; assay type: cell-based; conditions: Test SRB, intrinsic cisplatin resistance
Text: as §2

[5] = system: 2008 human ovarian carcinoma cells; assay: Sulphorhodamine B (SRB) growth inhibition assay, 2008; assay type: cell-based; conditions: Test SRB
Text: as §2

[6] = first run, read-out: IC50 5637 (bladder)
[7] = repeat run, read-out: IC50 5637 (bladder) Repeat
[8] = listed as [Pt(R,R-bn)(phen)]Cl2
[9] = listed as [Pt(S,S-bn)(phen)]Cl2
[10] = listed as [Pt(R,R-dach)(phen)](ClO4)2
[11] = listed as [Pt(S,S-dach)(phen)](ClO4)2

Row | Molecule | IC50 (A-427 (lung)) [µM] | IC50 (KYSE 520 (esophagus)) [µM] | IC50 (5637 (bladder); [6]) [µM] | IC50 (5637 (bladder); [7]) [µM] | IC50 (LCLC-103H (lung)) [µM] | further results
1 | N.N.[Cl][Pt][Cl] [CDDP, cis-diamminedichloroplatinum (II), reference compound] | 4.46 | 6.63 | 0.88 | 0.43 | 1.44 | 
2 | CC(N)C(C)N.[Cl-].[Cl-].[Pt+2].c1cnc2c(c1)ccc1cccnc12 [[Pt(2R,3R-bn)(phen)]Cl2] [(2R,3R-butanediamine)(1,10-phenanthroline)platinum(II) cation] | 0.54 | 0.67 | 0.32 | 0.43 | 0.78 | IC50 [1, 8]: 5.2 µM and 9 µM and 7.4 µM; IC50 [2, 8]: 2.5 µM and 1.9 µM; IC50 [3, 8]: 1.5 µM
3 | CC(N)C(C)N.[Cl-].[Cl-].[Pt+2].c1cnc2c(c1)ccc1cccnc12 [[Pt(2S,3S-bn)(phen)]Cl2] [(2S,3S-butanediamine)(1,10-phenanthroline)platinum(II) cation] | 1.35 | 1.87 | 1.11 | 0.98 | 2.39 | IC50 [1, 9]: 26 µM and 22 µM and 28 µM; IC50 [2, 9]: 5.3 µM and 8 µM; IC50 [4, 9]: 9.8 µM and 9.2 µM and 12 µM; IC50 [5, 9]: 7.2 µM and 11 µM; IC50 [3, 9]: 3.8 µM and 3 µM
4 | NCCN.[Cl-].[Cl-].[Pt+2].c1cnc2c(c1)c1nccnc1c1cccnc12 [[Pt(en)(dpq)]Cl2] | 16.4 | 19.4 | 16.7 |  | 23.6 | 
5 | [Cl-].[Cl-].c1cc2ccc3ccc[n+]4c3c2[n+](c1)[Pt-2]41[NH2+]CC[NH2+]1 [[Pt(en)(phen)]Cl2, reference compound] | 24.1 | 49.1 | 27 | 23.7 | 41.2 | 
6 | CC(N)C(C)N.[Cl-].[Cl-].[Pt+2].c1cnc2c(c1)ccc1cccnc12 [[Pt(meso-2,3-bn)(phen)]Cl2] [(2S,3R-butanediamine)(1,10-phenanthroline)platinum(II) cation] | 0.92 | 1.09 | 0.61 | 0.72 | 1.07 | 
7 | N[C@@H]1CCCC[C@H]1N.[O-][Cl+3]([O-])([O-])[O-].[O-][Cl+3]([O-])([O-])[O-].[Pt+2].c1cnc2c(c1)ccc1cccnc12 [[Pt(phen)(R,R-dach)](ClO4)2, (1R,2R-cyclohexanediamine)(1,10-phenanthroline)platinum(II) cation] |  |  |  | 0.54 |  | IC50 [1, 10]: 5.1 µM and 9.2 µM; IC50 [2, 10]: 4.3 µM and 4.5 µM; IC50 [4, 10]: 3.3 µM and 3.6 µM; IC50 [5, 10]: 3.3 µM and 3.1 µM; IC50 [3, 10]: 1.4 µM and 1.6 µM
8 | N[C@H]1CCCC[C@@H]1N.[O-][Cl+3]([O-])([O-])[O-].[O-][Cl+3]([O-])([O-])[O-].[Pt+2].c1cnc2c(c1)ccc1cccnc12 [[Pt(phen)(S,S-dach)](ClO4)2, (1S,2S-cyclohexanediamine)(1,10-phenanthroline)platinum(II) cation] |  |  |  | 0.15 |  | IC50 [1, 11]: 0.56 µM and 0.88 µM; IC50 [2]: 0.28 ± 0.09 µM; IC50 [4, 11]: 0.31 µM and 0.42 µM; IC50 [5, 11]: 0.37 µM and 0.45 µM; IC50 [3]: 0.13 µM
9 | (N,N′-dimethyl-1R,2R-cyclohexanediamine)(1,10-phenanthroline)platinum(II) cation [[Pt(phen)(Me2-R,R-dach)](ClO4)2] |  |  |  | 23.6 |  | 
10 | (N,N′-dimethyl-1S,2S-cyclohexanediamine)(1,10-phenanthroline)platinum(II) cation [[Ptphen)(Me2-S,S-dach](ClO4)2] |  |  |  | 55.6 |  | IC50 ([3]; listed as [Pt(Me2—S,S-dach)(phen)](ClO4)2): 12 µM

From patent publication US7410960B2, “Metal complexes and therapeutic uses thereof” (The University of Western Sydney, priority 2001, dated 2008)
